According to patent publication US9919029B2, “Methods and pharmaceutical compositions for the treatment of bacterial infections” (INSERM (INSTITUT NATIONAL DE LA SANTE ET DE LA RECHERCHE …, priority 2013, dated 2018):

Test system: Streptococcus pneumoniae
Assay: Streptococcus pneumoniae respiratory infection in mice
Type: in vivo, BALB/c mice
Details: severe/advanced infection; nasal flagellin plus antibiotic (oral amoxicillin or intraperitoneal bactrim)
Method: (§1) Animals were infected with a lethal dose of Streptococcus pneumoniae (1-5×10^6 CFU of serotypel, clinical isolate E1586) and treated at 40 h and 48 h as depicted in the upper panel. Seventeen hours later (T=65 h), bacterial counts were defined by plating tissue homogenates. The Left side: bacterial counts per lung. Right side: bacterial counts per spleen.
as §1, with “30” for “40 h and 48”, “Sixteen” for “Seventeen”, “(T=46” for “(T=65”
Animals were infected with a lethal dose of Streptococcus pneumoniae (1-5×10^6 CFU of serotypel, clinical isolate E1586) and treated from 12 h to 84 h as depicted in the upper panel. Survival of animals was then analyzed during 5 days.
FIG. 6. […] (A) S. pneumoniae-infected (2×10^6 CFU) BALB/c mice were treated intraperitoneally with 4.8 mg bactrim, i.e. co-trimoxazole (TMP-SMX) and intranasally with 2.5 μg flagellin FliCΔ174-400 and analyzed as indicated. (B) Survival was monitored every 12 h for 9 days. (C, D) Bacterial counts in lung (C) and spleen (D) was determined by measuring CFU per tissue. […] (E) The body weight of infected animals was measured and expressed relative to the initial weight. […]

Substance: flagellin
- reduction of number of bacteria compared to the antibiotic therapy alone: 10-to-50 fold
